Measured values reported in US20220202012A1, “SPROUT INHIBITOR FOR POTATO AND METHOD OF USE THEREOF” (UPL Limited, priority 2019, published 2022).
Values joined by “and” are separate entries in the source; they are usually repeats but may differ in a detail not shown here. Identical values can stand only once.

Columns and labels:
storage potatoes = test: Field trial: sprout suppression in storage potatoes, composition applied on a conveyor belt; type: in vivo, Solanum tuberosum
Method: The efficacy of sprout inhibitor for sprout suppression in storage potatoes was evaluated by applying the composition of present invention on potatoes on a conveyor belt. The treatment application for trial is at crop storage majority treatment 1) Beginning of sprouting: sprouts visible (<1 mm) and, treatment 2) at end of dormancy (sprouts 2-3 mm). After completion of the test, the potatoes were evaluated on sprouting reduction efficiency. No phytotoxicity was observed.

[1] = system: potatoes of the variety Fontane and Innovator; test: Field trials in Belgium 2018/2019: anti-sprout spray treatment of stored potatoes; type: in vivo, Solanum tuberosum; parameters: Tuber sprate 126 da-a / Tuber sprate 182 da-a: scale not given here; Sprout weight after 55 DA / Sprout LENMAX after 55 DA / Sprout weight 55 DA / Sprout weight 116 DA / Sprout Lenmax 55 DA / Sprout Lenmax 116 DA / Sprout lenmax 126 DA-A / Sprout lenmax 182 DA-A / Sprout weight 126 DA / Sprout weight 182 DA: unit not given here; conditions: for Sprout LENMAX after 55 DA: Length maximal; for Sprout Lenmax 55 DA / Sprout weight 55 DA / Tuber sprout % 55 DA / Sprout Lenmax 116 DA / Sprout weight 116 DA / Tuber sprout % 116 DA: Table 4; for Sprout lenmax 126 DA-A / Sprout weight 126 DA / Tuber sprouted (%) 126 DA / Tuber sprate 126 da-a / Sprout lenmax 182 DA-A / Sprout weight 182 DA / Tuber sprouted % 182 DA / Tuber sprate 182 da-a: Table 5
Method: Field trials were conducted in Belgium, during 2018 and 2019, in the potato crop. The potatoes of the variety Fontane and Innovator was used for anti-sprout treatment (Variety for processing) came up directly from the field (Harvested on Oct. 5, 2018 and Sep. 19, 2018).
The trial was set up in randomized complete block with single control randomized in each block under commercial storage practice. Potatoes treated 3 days after lifting and skin maturity was good. For application of formulation (carrier: 200 ml water for one treatment) container with rack and spray stick was used.
The first application (A) was carried out Potatoes treated 3 days after lifting. The following applications were carried out at four weeks' interval for each treatment.
(A): right after harvest, before putting into storage.
Storage conditions: The trials are stored in shed at temperature 5-18° C. and all plots of a trial should be stored in the same place.

[2] = Treatment (1): Beginning of sprouting, rate 60 ml/1000 kg
[3] = Treatment (2): At end of dormancy, rate not given
[4] = Treatment (1): Beginning of sprouting, rate 400 ml/1000 kg
[5] = Treatment (1): Beginning of sprouting, rate 195 ml/1000 kg
[6] = Treatment (1): Beginning of sprouting, rate 300 ml/1000 kg

In the case of `Cc1ccc(C)c2ccccc12` [1,4-Dimethylnaphthalene], the “Sprout No.” value (storage potatoes; [2]) is reported as 15.7, the “Sprouted (%)” value (storage potatoes; [2]) is reported as 42.80% and the “Sprout Number” value (storage potatoes; [3]) is reported as 34.3. For the same compound, the “Sprouted (%)” value (storage potatoes; [3]) was 94.59%.
In the case of `O=C(O)COc1ccc(Cl)cc1Cl` [2,4-D], the “Sprout No.” value (storage potatoes; [4]) is reported as 12.3, the “Sprouted (%)” value (storage potatoes; [4]) is reported as 31.14% and the “Sprout Number” value (storage potatoes; [3]) is reported as 38.7. For the same compound, the “Sprouted (%)” value (storage potatoes; [3]) was 99.21%.
With `CCCCCCC=CC(C)=O` [3-Decen-2-One] the “Sprout No.” value (storage potatoes; [5]) was 9.0, the “Sprouted (%)” value (storage potatoes; [5]) was 24.75% and the “Sprout Number” value (storage potatoes; [3]) was 32.7. For the same compound, the “Sprouted (%)” value (storage potatoes; [3]) was 100.0%.
In the case of `C=C(C)C1CC=C(C)C(=O)C1` (stereo not drawn) [Carvone], the “Sprout No.” value (storage potatoes; [6]) is reported as 12.3, the “Sprouted (%)” value (storage potatoes; [6]) is reported as 32.02% and the “Sprout Number” value (storage potatoes; [3]) is reported as 34.0. The “Sprouted (%)” value (storage potatoes; [3]) was 96.02%.
`COCc1cnc(C2=NC(C)(C(C)C)C(=O)N2)c(C(=O)O)c1` (stereo not drawn) [Imazamox, 5-(methoxymethyl)-2-(4-methyl-5-oxo-4-propan-2-yl-1H-imidazol-2-yl)pyridine-3-carboxylic acid] was tested, and the “Sprout No.” value (storage potatoes; [4]) was 9.7, the “Sprouted (%)” value (storage potatoes; [4]) was 24.77% and the “Sprout Number” value (storage potatoes; [3]) was 16.7. The “Sprouted (%)” value (storage potatoes; [3]) was 42.54%, the “Sprout weight after 55 DA” value ([1]; rate 12 g ai/1000 kg) was 6.89 and the “Tuber SPROUTED (%) after 55 DA” value ([1]; rate 12 g ai/1000 kg) was 78.67%. The “Sprout weight after 55 DA” value ([1]; rate 18 g ai/1000 kg) was 4.09, the “Tuber SPROUTED (%) after 55 DA” value ([1]; rate 18 g ai/1000 kg) was 73.21% and the “Sprout weight after 55 DA” value ([1]; rate 24 g ai/1000 kg) was 4.2. The “Tuber SPROUTED (%) after 55 DA” value ([1]; rate 24 g ai/1000 kg) was 75.26%, the “Sprout weight after 55 DA” value ([1]; rate 30 g ai/1000 kg) was 4.13 and the “Tuber SPROUTED (%) after 55 DA” value ([1]; rate 30 g ai/1000 kg) was 71.68%. The “Sprout LENMAX after 55 DA” value ([1]; rate 12 g ai/1000 kg) was 1.5, the “Sprout LENMAX after 55 DA” value ([1]; rate 18 g ai/1000 kg) was 1.7 and the “Sprout LENMAX after 55 DA” value ([1]; rate 24 g ai/1000 kg) was 1.2. The “Sprout LENMAX after 55 DA” value ([1]; rate 30 g ai/1000 kg) was 1.7, the “Sprout Lenmax 55 DA” value ([1]; rate 100 ml/1000 kg) was 1.5 and the “Sprout weight 55 DA” value ([1]; rate 100 ml/1000 kg) was 6.89. The “Tuber sprout % 55 DA” value ([1]; rate 100 ml/1000 kg) was 78.67%, the “Sprout Lenmax 55 DA” value ([1]; rate 150 ml/1000 kg) was 1.7 and the “Sprout weight 55 DA” value ([1]; rate 150 ml/1000 kg) was 4.09. The “Tuber sprout % 55 DA” value ([1]; rate 150 ml/1000 kg) was 73.21%, the “Sprout Lenmax 55 DA” value ([1]; rate 200 ml/1000 kg) was 1.2 and the “Sprout weight 55 DA” value ([1]; rate 200 ml/1000 kg) was 4.2. The “Tuber sprout % 55 DA” value ([1]; rate 200 ml/1000 kg) was 75.26%, the “Sprout Lenmax 55 DA” value ([1]; rate 250 ml/1000 kg) was 1.7 and the “Sprout weight 55 DA” value ([1]; rate 250 ml/1000 kg) was 4.13. For the same compound, the “Tuber sprout % 55 DA” value ([1]; rate 250 ml/1000 kg) was 71.68%, the “Sprout Lenmax 116 DA” value ([1]; rate 100 ml/1000 kg) was 3.3 and the “Sprout weight 116 DA” value ([1]; rate 100 ml/1000 kg) was 12.31. For the same compound, the “Tuber sprout % 116 DA” value ([1]; rate 100 ml/1000 kg) was 85.86%, the “Sprout Lenmax 116 DA” value ([1]; rate 150 ml/1000 kg) was 2.8 and the “Sprout weight 116 DA” value ([1]; rate 150 ml/1000 kg) was 7.92. For the same compound, the “Tuber sprout % 116 DA” value ([1]; rate 150 ml/1000 kg) was 79.15%, the “Sprout Lenmax 116 DA” value ([1]; rate 200 ml/1000 kg) was 2 and the “Sprout weight 116 DA” value ([1]; rate 200 ml/1000 kg) was 7.07. The “Tuber sprout % 116 DA” value ([1]; rate 200 ml/1000 kg) was 81.59%, the “Sprout Lenmax 116 DA” value ([1]; rate 250 ml/1000 kg) was 1.3 and the “Sprout weight 116 DA” value ([1]; rate 250 ml/1000 kg) was 4.92. The “Tuber sprout % 116 DA” value ([1]; rate 250 ml/1000 kg) was 71.93%, the “Sprout lenmax 126 DA-A” value ([1]; rate 50 ml/1000 kg) was 3.7 and the “Sprout lenmax 126 DA-A” value ([1]; rate 100 ml/1000 kg) was 2.8 and 5.2. For the same compound, the “Sprout lenmax 126 DA-A” value ([1]; rate 150 ml/1000 kg) was 1.7, the “Sprout lenmax 126 DA-A” value ([1]; rate 200 ml/1000 kg) was 2.2 and 2.1 and the “Sprout lenmax 126 DA-A” value ([1]; rate 250 ml/1000 kg) was 0.9. For the same compound, the “Sprout weight 126 DA” value ([1]; rate 50 ml/1000 kg) was 6.54, the “Tuber sprouted (%) 126 DA” value ([1]; rate 50 ml/1000 kg) was 88.47% and the “Sprout weight 126 DA” value ([1]; rate 150 ml/1000 kg) was 2.23 and 1.83. The “Tuber sprouted (%) 126 DA” value ([1]; rate 150 ml/1000 kg) was 81.43% and 72.58%, the “Sprout weight 126 DA” value ([1]; rate 200 ml/1000 kg) was 1.93 and 1.75 and the “Tuber sprouted (%) 126 DA” value ([1]; rate 200 ml/1000 kg) was 73.58% and 75.44%. The “Sprout weight 126 DA” value ([1]; rate 250 ml/1000 kg) was 1.65, the “Tuber sprouted (%) 126 DA” value ([1]; rate 250 ml/1000 kg) was 75.06% and the “Tuber sprate 126 da-a” value ([1]; rate 50 ml/1000 kg) was 8.83. The “Tuber sprate 126 da-a” value ([1]; rate 100 ml/1000 kg) was 9.5 and 8.83, the “Tuber sprate 126 da-a” value ([1]; rate 150 ml/1000 kg) was 9.5 and 9.58 and the “Tuber sprate 126 da-a” value ([1]; rate 200 ml/1000 kg) was 9.67 and 9.75. The “Tuber sprate 126 da-a” value ([1]; rate 250 ml/1000 kg) was 9.75, the “Sprout lenmax 182 DA-A” value ([1]; rate 50 ml/1000 kg) was 4.2 and the “Sprout lenmax 182 DA-A” value ([1]; rate 150 ml/1000 kg) was 1 and 0.7. The “Sprout lenmax 182 DA-A” value ([1]; rate 200 ml/1000 kg) was 1.7 and 1, the “Sprout lenmax 182 DA-A” value ([1]; rate 250 ml/1000 kg) was 1.2 and the “Sprout weight 182 DA” value ([1]; rate 50 ml/1000 kg) was 23. The “Tuber sprouted % 182 DA” value ([1]; rate 50 ml/1000 kg) was 88.1%, the “Tuber sprouted % 182 DA” value ([1]; rate 100 ml/1000 kg) was 83.33% and 86.19% and the “Sprout weight 182 DA” value ([1]; rate 150 ml/1000 kg) was 3.77 and 3.13. For the same compound, the “Tuber sprouted % 182 DA” value ([1]; rate 150 ml/1000 kg) was 73.1% and 75.45%, the “Sprout weight 182 DA” value ([1]; rate 200 ml/1000 kg) was 5.77 and 3.3 and the “Tuber sprouted % 182 DA” value ([1]; rate 200 ml/1000 kg) was 77.93% and 65.99%. For the same compound, the “Sprout weight 182 DA” value ([1]; rate 250 ml/1000 kg) was 3.53, the “Tuber sprouted % 182 DA” value ([1]; rate 250 ml/1000 kg) was 74.98% and the “Tuber sprate 182 da-a” value ([1]; rate 50 ml/1000 kg) was 8.67. For the same compound, the “Tuber sprate 182 da-a” value ([1]; rate 100 ml/1000 kg) was 9.67 and 8.83, the “Tuber sprate 182 da-a” value ([1]; rate 150 ml/1000 kg) was 9.75 and the “Tuber sprate 182 da-a” value ([1]; rate 200 ml/1000 kg) was 9.58 and 9.67. The “Tuber sprate 182 da-a” value ([1]; rate 250 ml/1000 kg) was 9.67, the “sprout control over time (in words)” value ([1]; as compared to other treatments such as maleic hydrazide, CIPC) was “effective sprout control over an extended period of time” and the “inhibition of sprouts (in words)” value ([1]; comment on Table 3) was “effective for inhibition of sprouts”. The “sprout weight (in words)” value ([1]; comment on Table 3, as compared to maleic hydrazide) was “an advantage was found” and the tubers germinated ([1]; comment on Table 5, dose rate 250 ml/1000 kg) was 74%.
